Results on two compounds are retold here after patent US11072634B2, “Inhibitors of transglutaminases” (Zedira GmbH, priority 2016, dated 2021).

The target in one test is T1, TG2 (Rattus norvegicus, UniProt Q9WVJ6).
T1 construct: endogenous in cells; host or cells: NRK52E
T1 sequence (Q9WVJ6 1-686): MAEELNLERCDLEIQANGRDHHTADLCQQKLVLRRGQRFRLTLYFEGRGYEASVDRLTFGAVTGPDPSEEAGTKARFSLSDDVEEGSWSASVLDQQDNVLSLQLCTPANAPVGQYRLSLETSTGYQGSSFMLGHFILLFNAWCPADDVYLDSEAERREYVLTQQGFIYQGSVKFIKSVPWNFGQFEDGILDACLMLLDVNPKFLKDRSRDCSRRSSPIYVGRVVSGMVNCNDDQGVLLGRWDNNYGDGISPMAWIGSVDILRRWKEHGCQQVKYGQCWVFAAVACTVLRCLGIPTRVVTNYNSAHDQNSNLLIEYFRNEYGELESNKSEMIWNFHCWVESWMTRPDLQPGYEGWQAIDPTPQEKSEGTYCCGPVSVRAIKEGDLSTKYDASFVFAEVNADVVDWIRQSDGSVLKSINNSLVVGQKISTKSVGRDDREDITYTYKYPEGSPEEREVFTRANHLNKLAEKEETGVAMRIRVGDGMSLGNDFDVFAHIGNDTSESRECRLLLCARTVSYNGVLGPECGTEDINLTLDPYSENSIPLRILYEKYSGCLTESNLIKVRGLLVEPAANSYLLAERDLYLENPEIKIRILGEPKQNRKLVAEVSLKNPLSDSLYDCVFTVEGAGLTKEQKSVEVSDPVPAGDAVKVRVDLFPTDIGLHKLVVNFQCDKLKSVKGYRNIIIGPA
Nature of the test: TG2 activity in NRK52E cell homogenates (Tissue Transglutaminase Pico-Assay Kit). Type of test: cell-based. Particulars: 6/24/36 mM glucose, 10-100 μM inhibitor. As for the experimental part:
Fibrosis is a hallmark in diabetic nephropathy and chronic kidney diseases. Proximal tubular epithelial cells show increased TG2 activity and increased extracellular matrix proteins (ECM) accumulation under hyperglycemic conditions. ECM accumulation is a hall mark of fibrosis. […] TG2-activity and ECM-accumulation was measured. Rattus norvegicus kidney derived cell line NRK52E was grown at 37° C. in a humidified atmosphere at 5% (v/v) CO2 in DMEM (Dulbecco's modified Eagle's medium) containing 100 μg/mL streptomycin, 100 units/ml penicillin, […], and 10% (v/v) fetal calf serum. For simulation of normal physiological conditions 6 mM D-glucose were added to the medium, while addition of 24 mM and 36 mM D-glucose simulated hyperglycemic conditions. Reversible TG2 inhibitor E06 in the concentrations indicated in FIG. 1A was added at the time of plating to the medium. Reversible TG2 inhibitor E22 in the concentrations indicated in FIG. 2A was added at the time of plating to the medium.
TG2-activity was determined in cell homogenates. […]
TG2-activity was measured using the TG2-selective Tissue Transglutaminase Pico-Assay Kit (#M003, Zedira, Darmstadt, Germany) according to the manufacturer's instructions. […]

For test [1], the system named is Htt-exon1-97Q transfected N2a-cells. Nature of the test: ELISA of huntingtin and isopeptide bonds in SDS-soluble and formic acid soluble cell extracts. In kind it is cell-based, mouse. The following applies: N2a Htt-exon1-97Q, 150 or 300 μM, both extracts. As for the experimental part:
A) Detection of huntingtin (htt) in an ELISA-Assay. Microtiter plate wells were coated with SDS-soluble and formic acid solubilized extracts of Htt-exon1-97Q transfected N2a-cells grown in the presence of 150 and 300 μM TG2-inhibitor E22. Anti-Htt-antibody 1C2 (1:250, Millipore, MAB1574) was used as detection antibody, followed by a conventional ELISA-protocol.
B) Detection of isopeptide bonds in an ELISA-Assay. Microtiter plate wells were coated with SDS-soluble and formic acid solubilized extracts of Htt-exon1-97Q transfected N2a-cells grown in the presence of 150 and 300 μM TG2-inhibitor E22. Antibody A023 (1:200, Zedira) recognizing N^ε-(γ-L-glutamyl)-L-lysine-isopeptide was used as detection antibody, followed by a conventional ELISA-protocol. […]
SDS-soluble and formic acid soluble extracts were used subsequently for coating of 96-well micro-titer-plates. […] Extinction was measured at 450 nm in a plate reader device.
In order to analyze the effect of E22 on huntingtin aggregation and cross-linking, Htt-exon1-97Q transfected N2a-cells were grown in presence of 150 or 300 μM TG2-blacker E22. SDS-soluble and formic acid soluble extracts were generated and huntingtin and cross-links (isopeptide bonds) were determined in an ELISA-format as described above.
A general note: An ELISA detects its analyte on a solid surface through an enzyme-linked reagent.

On to `CC(=O)N[C@@H](CCC(=O)C(N)=O)C(=O)N1CCN(c2ccccc2Cl)CC1` [Compound E06, (S)-5-acetamido-6-(4-(2-chlorophenyl)piperazin-1-yl)-2,6-dioxohexanamide], for which the “TG2 activity determined in the cell homogenates” value on TG2 is recorded as “decreases”.
With `CCCCCNC(=O)C(=O)CC[C@H](NC(=O)[C@@H]1CCCN1C(C)=O)C(=O)Nc1cccn(CC(=O)NCC(CC)CC)c1=O` [Compound E22, (S)-2-((S)-1-acetylpyrrolidine-2-carboxamido)-N1-(1-(2-(2-ethylbutylamino)-2-oxoethyl)-2-oxo-1,2-dihydropyridin-3-yl)-5-oxo-N6-pentylhexanediamide], in test [1], the “protein cross-linking (isopeptide bonds)” value was “reduces protein cross-linking in a dose dependent manner”. For the same compound, at TG2, the “TG2 activity determined in the cell homogenates” value is listed as “decreases”.
